{
  "source": "patent US11738065B2",
  "about": "“Polypeptides and analogues thereof for use in the treatment of diabetes and bone disorders” (UNIVERSITY OF ULSTER, priority 2015, dated 2023)",
  "assay_type_in_all_cases": "in vivo",
  "key": {"[1]": {"system": "high fat fed mice", "assay": "Sub chronic 21 day twice daily study in high fat fed mice (energy intake, body weight, body composition, glucose, insulin)", "settings": "25 nmol/kg twice daily", "protocol": "All animal experiments were carried out in accordance with the UK Animals (Scientific Procedures) Act 1986. […] On day 21, a non-fasted 24 h glucose profile was conducted. […] HOMA-IR was determined using the equation HOMA-IR=fasting glucose (mmol/l)×fasting insulin (mU/l)/22.5. […] Terminal analysis included measurement of total body fat and lean mass by DEXA scanning (Piximus Densitometer, Inside Outside Sales, Madison Wis., USA) and extraction of pancreatic tissue for analysis as detailed below. […] Briefly, pancreatic tissues were fixed in 4% parafolmaldehyde at 4° C. for 48 h. Pancreata were then embedded in paraffin wax and processed using an automated tissue processor (Leica TP1020, Leica Microsystems, Nussloch, Germany). […] Abcam, ab6995) or guinea-pig anti-glucagon antibody (PCA2/4, 1:400; raised in-house). […] The slides were viewed under a FITC (488 nm) or TRITC filter (594 nm) using a fluorescent microscope (Olympus system microscope, model BX51) and photographed using a DP70 camera adapter system. Islet parameters were analysed using Cell^F image analysis software (Olympus Soft Imaging Solutions, GmbH). Blood samples were collected from the cut tip on the tail vein of conscious mice into chilled fluoride/heparin glucose micro-centrifuge tubes (Sarstedt, Numbrecht, Germany) at the time points indicated in the Drawings. Blood glucose was measured directly using a hand-held Ascencia Contour blood glucose meter (Bayer Healthcare, Newbury, Berkshire, UK)."}, "[2]": {"system": "high fat fed mice", "assay": "Glucose tolerance test after 21 days treatment", "protocol": "Twice daily (09:30 and 17:30 h) i.p. injections of saline vehicle (0.9% w/v NaCl), polypeptides (at 25 nmol/kg bw) were administered for 21 days in high fat mice. Energy intake and body weight were monitored daily, and non-fasting blood glucose and plasma insulin concentrations were assessed at 3 day intervals. On day 21, a non-fasted 24 h glucose profile was conducted. At the end of the treatment period, i.p. glucose tolerance (18 mmol/kg bw), biological response to GIP (18 mmol/kg glucose in combination with native GIP (25 nmol/kg); i.p.) and insulin sensitivity (15 U/kg bw; i.p.) tests were performed. HOMA-IR was determined using the equation HOMA-IR=fasting glucose (mmol/l)×fasting insulin (mU/l)/22.5. All test solutions were administered in a final volume of 5 ml/kg body weight, at 10:00 h without previous 09:30 h peptide injection. Terminal analysis included measurement of total body fat and lean mass by DEXA scanning (Piximus Densitometer, Inside Outside Sales, Madison Wis., USA) and extraction of pancreatic tissue for analysis as detailed below. Immunohistochemistry Pancreatic tissue was excised, divided longitudinally and either immediately snap frozen for subsequent extraction of insulin using acid ethanol extraction (5 ml/g) as described by Irwin et al., 2015 (Diabetes. 2015 August; 64(8):2996-3009), or processed for immunohistochemical examination. Briefly, pancreatic tissues were fixed in 4% parafolmaldehyde at 4° C. for 48 h. Pancreata were then embedded in paraffin wax and processed using an automated tissue processor (Leica TP1020, Leica Microsystems, Nussloch, Germany). Immunohistochemistry was performed as described by Vasu et al., 2014 (PLoS One. 2014 Jun. 26; 9(6):e101005). Succinctly, tissue sections were deparaffinised, rehydrated and probed with primary antibodies: mouse anti-insulin antibody (1:500; Abcam, ab6995) or guinea-pig anti-glucagon antibody (PCA2/4, 1:400; raised in-house). The sections were then incubated with secondary antibody, Alexa Fluor 488 goat anti-guinea pig IgG (1:400) or Alexa Fluor 594 goat anti-mouse IgG (1:400); respectively. […] Islet parameters were analysed using Cell^F image analysis software (Olympus Soft Imaging Solutions, GmbH).\nTests were conducted after twice daily treatment with saline vehicle (0.9% (w/v) NaCl), (DAla^2)GIP and (DAla^2)GIP/xenin-8-Gln (each at 25 nmol/kg bw) for 21 days. For glucose tolerance test, blood glucose and plasma insulin concentrations were measured before and 15, 30, 60 and 105 min after i.p injection of glucose (18 mmol/kg bw). For metabolic response to GIP, blood glucose and plasma insulin concentrations were measured before and 15, 30, 60 and 105 min after i.p injection of glucose (18 mmol/kg bw) in combination with GIP (25 nmol/kg bw). […]"}, "[3]": {"system": "high fat fed mice", "assay": "Metabolic response to GIP after 21 days treatment", "protocol": "Twice daily (09:30 and 17:30 h) i.p. injections of saline vehicle (0.9% w/v NaCl), polypeptides (at 25 nmol/kg bw) were administered for 21 days in high fat mice. Energy intake and body weight were monitored daily, and non-fasting blood glucose and plasma insulin concentrations were assessed at 3 day intervals. On day 21, a non-fasted 24 h glucose profile was conducted. At the end of the treatment period, i.p. glucose tolerance (18 mmol/kg bw), biological response to GIP (18 mmol/kg glucose in combination with native GIP (25 nmol/kg); i.p.) and insulin sensitivity (15 U/kg bw; i.p.) tests were performed. HOMA-IR was determined using the equation HOMA-IR=fasting glucose (mmol/l)×fasting insulin (mU/l)/22.5. All test solutions were administered in a final volume of 5 ml/kg body weight, at 10:00 h without previous 09:30 h peptide injection. Terminal analysis included measurement of total body fat and lean mass by DEXA scanning (Piximus Densitometer, Inside Outside Sales, Madison Wis., USA) and extraction of pancreatic tissue for analysis as detailed below. Immunohistochemistry Pancreatic tissue was excised, divided longitudinally and either immediately snap frozen for subsequent extraction of insulin using acid ethanol extraction (5 ml/g) as described by Irwin et al., 2015 (Diabetes. 2015 August; 64(8):2996-3009), or processed for immunohistochemical examination. Briefly, pancreatic tissues were fixed in 4% parafolmaldehyde at 4° C. for 48 h. Pancreata were then embedded in paraffin wax and processed using an automated tissue processor (Leica TP1020, Leica Microsystems, Nussloch, Germany). Immunohistochemistry was performed as described by Vasu et al., 2014 (PLoS One. 2014 Jun. 26; 9(6):e101005). Succinctly, tissue sections were deparaffinised, rehydrated and probed with primary antibodies: mouse anti-insulin antibody (1:500; Abcam, ab6995) or guinea-pig anti-glucagon antibody (PCA2/4, 1:400; raised in-house). The sections were then incubated with secondary antibody, Alexa Fluor 488 goat anti-guinea pig IgG (1:400) or Alexa Fluor 594 goat anti-mouse IgG (1:400); respectively. The slides were viewed under a FITC (488 nm) or TRITC filter (594 nm) using a fluorescent microscope (Olympus system microscope, model BX51) and photographed using a DP70 camera adapter system. Islet parameters were analysed using Cell^F image analysis software (Olympus Soft Imaging Solutions, GmbH).\nTests were conducted after twice daily treatment with saline vehicle (0.9% (w/v) NaCl), (DAla^2)GIP and (DAla^2)GIP/xenin-8-Gln (each at 25 nmol/kg bw) for 21 days. For glucose tolerance test, blood glucose and plasma insulin concentrations were measured before and 15, 30, 60 and 105 min after i.p injection of glucose (18 mmol/kg bw). For metabolic response to GIP, blood glucose and plasma insulin concentrations were measured before and 15, 30, 60 and 105 min after i.p injection of glucose (18 mmol/kg bw) in combination with GIP (25 nmol/kg bw). All studies were conducted in 18 h fasted mice. AUC values (0-105 min) for blood glucose and plasma insulin are shown. Values represent means±SEM for 6-8 mice. *P<0.05, **P<0.01, […] compared to high fat controls. ^ΔP<0.05, ^ΔΔP<0.01, ^ΔΔΔP<0.001 compared to lean controls."}, "[4]": {"system": "high fat fed mice", "assay": "Insulin sensitivity test and HOMA-IR after 21 days treatment", "protocol": "On day 21, a non-fasted 24 h glucose profile was conducted. […] HOMA-IR was determined using the equation HOMA-IR=fasting glucose (mmol/l)×fasting insulin (mU/l)/22.5. […] Terminal analysis included measurement of total body fat and lean mass by DEXA scanning (Piximus Densitometer, Inside Outside Sales, Madison Wis., USA) and extraction of pancreatic tissue for analysis as detailed below. […] Briefly, pancreatic tissues were fixed in 4% parafolmaldehyde at 4° C. for 48 h. Pancreata were then embedded in paraffin wax and processed using an automated tissue processor (Leica TP1020, Leica Microsystems, Nussloch, Germany). Immunohistochemistry was performed as described by Vasu et al., 2014 (PLoS One. 2014 Jun. 26; 9(6):e101005). […] Abcam, ab6995) or guinea-pig anti-glucagon antibody (PCA2/4, 1:400; raised in-house). […] The slides were viewed under a FITC (488 nm) or TRITC filter (594 nm) using a fluorescent microscope (Olympus system microscope, model BX51) and photographed using a DP70 camera adapter system. Islet parameters were analysed using Cell^F image analysis software (Olympus Soft Imaging Solutions, GmbH)."}, "[5]": {"settings": "0-105 min, glucose 18 mmol/kg i.p., 18 h fasted, after 21 days 25 nmol/kg twice daily, mean ± SEM"}, "[6]": {"settings": "21 days treatment, vs high fat controls"}, "[7]": {"settings": "0-105 min, glucose 18 mmol/kg + GIP 25 nmol/kg i.p., 18 h fasted, after 21 days treatment, mean ± SEM"}},
  "note": "Marks after values point to notes of the source that are not given here.",
  "data": [
    {"smiles": "CC[C@H](C)[C@H](NC(=O)[C@H](CO)NC(=O)[C@H](Cc1ccc(O)cc1)NC(=O)[C@H](CC(=O)O)NC(=O)[C@H](CO)NC(=O)[C@@H](NC(=O)[C@H](Cc1ccccc1)NC(=O)[C@@H](NC(=O)CNC(=O)[C@H](CCC(=O)O)NC(=O)[C@@H](C)NC(=O)[C@@H](N)Cc1ccc(O)cc1)[C@@H](C)O)[C@@H](C)CC)C(=O)N[C@@H](C)C(=O)N[C@@H](CCSC)C(=O)N[C@@H](CC(=O)O)C(=O)N[C@@H](CCCCN)C(=O)N[C@H](C(=O)N[C@@H](Cc1c[nH]cn1)C(=O)N[C@@H](CCC(N)=O)C(=O)N[C@@H](CCC(N)=O)C(=O)N[C@@H](CC(=O)O)C(=O)N[C@@H](Cc1ccccc1)C(=O)N[C@H](C(=O)N[C@@H](CC(N)=O)C(=O)N[C@@H](Cc1c[nH]c2ccccc12)C(=O)N[C@@H](CC(C)C)C(=O)N[C@@H](CC(C)C)C(=O)N[C@@H](C)C(=O)N[C@@H](CCC(N)=O)C(=O)N[C@@H](CCCCN)C(=O)NCC(=O)N[C@@H](CCCCN)C(=O)N[C@@H](CCCCN)C(=O)N[C@@H](CC(N)=O)C(=O)N[C@@H](CC(=O)O)C(=O)N[C@@H](Cc1c[nH]c2ccccc12)C(=O)N[C@@H](CCCCN)C(=O)N[C@@H](Cc1c[nH]cn1)C(=O)N[C@@H](CC(N)=O)C(=O)N[C@H](C(=O)N[C@H](C(=O)N[C@@H](CCC(N)=O)C(=O)O)[C@@H](C)O)[C@@H](C)CC)C(C)C)[C@@H](C)CC", "note": "[(DAla2)GIP, TYR-(d)ALA-GLU-GLY-THR-PHE-ILE-SER-ASP-TYR-SER-ILE-ALA-MET-ASP-LYS-ILE-HIS-GLN-GLN-ASP-PHE-VAL-ASN-TRP-LEU-LEU-ALA-GLN-LYS-GLY-LYS-LYS-ASN-ASP-TRP-LYS-HIS-ASN-ILE-THR-GLN]", "values": [
      {"measurement": "Non-fasting 24 h glucose profile on day 21", "setting": "[1]", "value": "also reduced, but not to the same extent"},
      {"measurement": "Circulating plasma insulin", "setting": "[1]; 21 days", "value": "tendency for reduced plasma insulin levels"},
      {"measurement": "Energy intake or body weight", "setting": "[1]; 21 days, vs high fat controls", "value": "no significant effect"},
      {"measurement": "Total body fat and lean mass (DXA)", "setting": "[1]; after 21 days", "value": "unaltered"},
      {"measurement": "Non-fasting blood glucose vs lean control mice", "setting": "[1]; from day 12 onwards", "value": "not significantly different from lean control mice"},
      {"measurement": "Glucose tolerance test Blood glucose AUC", "setting": "[2]; [5]", "value": "1714.7 ± 138.6^Δ mmol/l · min"},
      {"measurement": "Glucose tolerance test Plasma insulin AUC", "setting": "[2]; [5]", "value": "65.4 ± 9.2^Δ ng/ml · min"},
      {"measurement": "Glucose-stimulated plasma insulin AUC", "setting": "[2]; [6]", "value": "reduced, albeit non-significantly"},
      {"measurement": "Overall AUC blood glucose following a glucose load", "setting": "[2]; 21 days treatment, vs saline controls", "value": "strong tendency to reduce overall AUC blood glucose levels"},
      {"measurement": "Metabolic response to GIP Blood glucose AUC", "setting": "[3]; [7]", "value": "1029.5 ± 138.0* mmol/l · min"},
      {"measurement": "Metabolic response to GIP Plasma insulin AUC", "setting": "[3]; [7]", "value": "142.3 ± 19.2**^,ΔΔΔ ng/ml · min"},
      {"measurement": "Glucose lowering and insulin releasing actions of native GIP", "setting": "[3]; 21 days treatment", "value": "significantly (P<0.05) improved"},
      {"measurement": "Decrease of overall blood glucose AUC in response to GIP vs saline treated control mice", "setting": "[3]; 21 days treatment, P<0.05", "value": 36, "unit": "%"},
      {"measurement": "GIP-induced elevations of plasma insulin (AUC)", "setting": "[3]; [6]", "value": "significantly (P<0.05 to P<0.01) augmented"},
      {"measurement": "HOMA-IR insulin sensitivity", "setting": "[4]; [6]", "value": "significantly (P<0.05) improved insulin sensitivity"},
      {"measurement": "Individual blood glucose levels following exogenous insulin", "setting": "[4]; insulin 15 U/kg i.p., day 21, vs high fat controls", "value": "reduced, albeit non-significantly"},
      {"measurement": "Overall glucose lowering effect of insulin (blood glucose AAC 0-60 min)", "setting": "[4]; insulin 15 U/kg i.p., day 21, vs saline control high fat mice", "value": "significantly (P<0.001) improved"}
    ]}
  ]
}
